In article PMC8776995 (Frontiers in Chemistry, 2022):
Values joined by “and” are separate entries in the source; they are usually repeats but may differ in a detail not shown here. Equal entries are not always repeated. Where two headings read alike, the source gives them in different places.

Experiments:
[1] = tested on: CCND1, CCNA2, CCNB1, CDK2, CDK6 RNA in PC-9 cells; test: qPCR assay for cell cycle-related gene analysis; type: cell-based, human; conditions: for RQ, CCND1 / RQ, CDK6 / RQ, CCNA / RQ, CCNB / RQ (CDK2): endogenous control b-Actin, reference sample NC; for CDK6 relative mRNA expression (fold of NC): qPCR, SYBR Green, normalised to beta-Actin, relative to NC = 1; for RQ, CCNA: target CCNA; for RQ, CCNB: target CCNB
Source text: To better understand the mechanisms underlying cell cycle arrest induced by e4 and e12 in NSCLC cells, we assessed the expression levels of a few genes involved in cell cycle regulation, including cyclin D1 (CCND1), cyclin A2 (CCNA2), cyclin B1 (CCNB1), cyclin-dependent kinase 2 (CDK2), and cyclin-dependent kinase 6 (CDK6) in PC-9 by qPCR. […] CCNA2 is known to bind and activate CDK2 and thus promotes the transition through G1/S and G2/M. CCNB1 and CCND1 are essential to mitosis and G1/S transition respectively. While G2/M arrest weas not detected, the changes in these gene expression profiles interpret the G1/S arrests in PC-9 cells treated with e4 and e12. PC-9 cells exposed to the compounds for various periods should be examined further.
Total RNA of cells was extracted and cDNA was synthesized. The primers for the target products were designed as in Table 3.

A549 cells = test: CCK-8 antiproliferation assay, A549; conditions: for Inhibitory efficacy: A549 cells
[2] = tested on: AKT phosphorylation (S473) in PC-9 cells; test: Western blot, p-AKT/AKT in PC-9; conditions: for p-AKT/AKT: band density ratio; for p-AKT/AKT relative to DMSO: ratio normalised to DMSO = 1
Experimental: We also performed western blot analysis to evaluate the impact of e4 and e12 on EGFR signaling in PC-9 and H460 cells.
H460 cells were seeded in six-well plates with serum-free medium overnight, and then treated complete medium containing 0.1% DMSO, various concentrations (0.1, 1 and 10 μM) of either compound e4 or e12 for 2 h, respectively. […] Then the H460 cells were treated with complete medium containing EGF (10 ng/ml) for 5 min. Then the cells were harvested and washed with PBS, centrifuged, resuspended in 100–200 μl of RIPA lysis buffer containing Protease and Phosphatase Inhibitor Cocktail (1X), and then centrifuged for 5 min at 12,000 rpm at 4°C. The supernatant was used for protein analysis. […] Then the membrane was washed 5 min (X3) and incubated at 1:3,000 dilution of anti-rabbit secondary antibodies or 1:1,000 dilution of anti-mouse secondary antibodies for 1 h at RT. After washing with TBST 5 min (X3), protein bands were developed by chemiluminescence. The protein levels were quantified by the gray values of the bands in the resulting images by ImageJ, and the control group was used as the standard. […] The PC-9 cells were harvested and analyzed as above.

PC-9 cells = test: CCK-8 antiproliferation assay, PC-9; conditions: for Inhibitory efficacy: single repeats (Repeat 1-3), given as fraction
Experimental: (§1) The compounds were dissolved in DMSO to make a 20 μM stock solution and diluted to the concentration of working solutions with complete growth medium before administration.
(§2) Cells were seeded in 96-well plates: 3,000–5,000 cells/well in 100 ul. One day after seeding, the test compounds at concentration between 1.0 and 16.0 μ M or 0.1% DMSO (as control) were added to cells in triplicate. 48 h later, CCK-8 was added and incubated the plate for 1–4 h in the incubator. The absorbance at 450 nm were measured using a microplate reader (Bio-Tek).

H460 cells = test: CCK-8 antiproliferation assay, H460; conditions: given as fraction, Repeat 1-3; for Inhibitory efficacy: H460 cells
Experimental: as §1, §2

With `COCCOc1cc2ncnc(Nc3cccc(-c4cn(-c5ccc(C)cc5)nn4)c3)c2cc1OCCOC` [e12, [6,7-Bis-(2-methoxy-ethoxy)-quinazolin-4-yl]-[3-(1-p-tolyl-1H-[1,2,3]triazol-4-yl)-phenyl]-amine] the “RQ, CCND1” value ([1]; qPCR SYBR Green, CCND1 mRNA, 12uM) was 0.9545, the “RQ, CDK6” value ([1]; qPCR SYBR Green, CDK6 mRNA, 4uM) was 0.8604 and the “RQ, CDK6” value ([1]; qPCR SYBR Green, CDK6 mRNA, 8uM) was 1.1509. The “RQ, CDK6” value ([1]; qPCR SYBR Green, CDK6 mRNA, 12uM) was 1.27, the “CDK6 relative mRNA expression (fold of NC)” value ([1]; 4uM) was 0.9896 and the “CDK6 relative mRNA expression (fold of NC)” value ([1]; 8uM) was 0.9153. The “CDK6 relative mRNA expression (fold of NC)” value ([1]; 12uM) was 0.9852, the “RQ, CCNA” value ([1]; 4uM) was 0.5435 and the “RQ, CCNA” value ([1]; 8uM) was 0.582. For the same compound, the “RQ, CCNA” value ([1]; 12uM) was 0.5914, the “RQ, CCNB” value ([1]; 4uM) was 0.9828 and the “RQ, CCNB” value ([1]; 8uM) was 0.8452. For the same compound, the “RQ, CCNB” value ([1]; 12uM) was 0.7825, the “RQ, CCND1” value ([1]; target CCND1, 4uM) was 0.7886 and the “RQ, CCND1” value ([1]; target CCND1, 8uM) was 0.7649. The “RQ, CCND1” value ([1]; target CCND1, 12uM) was 0.6173, the “RQ (CDK2)” value ([1]; target CDK2, 4uM) was 0.9262 and the “RQ (CDK2)” value ([1]; target CDK2, 8uM) was 0.848. For the same compound, the “RQ (CDK2)” value ([1]; target CDK2, 12uM) was 0.7751, the “RQ, CDK6” value ([1]; target CDK6, 4uM) was 0.5928 and the “RQ, CDK6” value ([1]; target CDK6, 8uM) was 0.8101. For the same compound, the “RQ, CDK6” value ([1]; target CDK6, 12uM) was 0.676, the Inhibitory efficacy (A549 cells; 1uM, given as fraction, Repeat 1-3) was 0.1461 and 0.1139 and the Inhibitory efficacy (A549 cells; 2uM, given as fraction, Repeat 1-3) was 0.3261 and 0.1967. For the same compound, the Inhibitory efficacy (A549 cells; 4uM, given as fraction, Repeat 1-3) was 0.4378 and 0.3806, the Inhibitory efficacy (A549 cells; 8uM, given as fraction, Repeat 1-3) was 0.5646 and 0.5114 and the Inhibitory efficacy (A549 cells; 16uM, given as fraction, Repeat 1-3) was 0.7887 and 0.7821. It also gave an IC50 (A549 cells; Homo sapiens, A549, 48 h, read-out: IC50 (μM) A549, CCK-8, 48 h, average ± SD of three independent experiments) of under 10 µM, an inhibition at 1 µM (A549 cells; Homo sapiens, A549, read-out: Inhibitory efficacy, A549 cells, 1uM, given as fraction, Repeat 1-3) of 9.61% and an inhibition at 2 µM (A549 cells; Homo sapiens, A549, read-out: Inhibitory efficacy, A549 cells, 2uM, given as fraction, Repeat 1-3) of 26.8%. It also gave an inhibition at 4 µM (A549 cells; Homo sapiens, A549, read-out: Inhibitory efficacy, A549 cells, 4uM, given as fraction, Repeat 1-3) of 37.9%, an inhibition at 8 µM (A549 cells; Homo sapiens, A549, read-out: Inhibitory efficacy, A549 cells, 8uM, given as fraction, Repeat 1-3) of 51.9% and an inhibition at 16 µM (A549 cells; Homo sapiens, A549, read-out: Inhibitory efficacy, A549 cells, 16uM, given as fraction, Repeat 1-3) of 78.5%. The IC50 (A549 cells; read-out: IC50 (μM) A549, CCK-8, 48 h, average ± SD of three independent experiments) was 5.91 ± 0.73 µM, the p-AKT/AKT ([2]; PC-9, 0.1 uM) was 0.5916 and the “p-AKT/AKT relative to DMSO” value ([2]; PC-9, 0.1 uM) was 0.5679. The p-AKT/AKT ([2]; PC-9, 1 uM) was 0.4098, the “p-AKT/AKT relative to DMSO” value ([2]; PC-9, 1 uM) was 0.3934 and the p-AKT/AKT ([2]; PC-9, 10 uM) was 0.7398. The “p-AKT/AKT relative to DMSO” value ([2]; PC-9, 10 uM) was 0.7102, the “phosphorylation of AKT (western blot)” value ([2]; PC-9, especially at 10 μM) was “suppressed” and the IC50 (PC-9 cells; Homo sapiens, PC-9, 48 h, read-out: IC50 (μM) PC-9) was 6.36 ± 0.11 µM. It also gave an inhibition at 4 µM (PC-9 cells; Homo sapiens, PC-9, read-out: Inhibitory efficacy, PC-9, 4uM, single repeats (Repeat 1-3), given as fraction) of 21.3%, an inhibition at 8 µM (PC-9 cells; Homo sapiens, PC-9, read-out: Inhibitory efficacy, PC-9, 8uM, single repeats (Repeat 1-3), given as fraction) of 70.1% and an inhibition at 16 µM (PC-9 cells; Homo sapiens, PC-9, read-out: Inhibitory efficacy, PC-9, 16uM, single repeats (Repeat 1-3), given as fraction) of 88.6%. The Inhibitory efficacy (PC-9 cells; PC-9, 4uM, 4 µM) was 0.1587 and 0.2347, the Inhibitory efficacy (PC-9 cells; PC-9, 8uM, 8 µM) was 0.6968 and 0.6771 and the Inhibitory efficacy (PC-9 cells; PC-9, 16uM, 16 µM) was 0.8795 and 0.8884. For the same compound, the Inhibitory efficacy (H460 cells; 1uM) was 0.2117 and 0.1598, the Inhibitory efficacy (H460 cells; 2uM) was 0.3397 and 0.3411 and the Inhibitory efficacy (H460 cells; 4uM) was 0.5452 and 0.4421. The Inhibitory efficacy (H460 cells; 8uM) was 0.667 and 0.5743, the Inhibitory efficacy (H460 cells; 16uM) was 0.9091 and 0.887 and the inhibition at 1 µM (H460 cells; Homo sapiens, NCI-H460, read-out: Inhibitory efficacy, H460 cells, 1uM) was 16.7%. For the same compound, the inhibition at 2 µM (H460 cells; Homo sapiens, NCI-H460, read-out: Inhibitory efficacy, H460 cells, 2uM) was 36.8%, the inhibition at 4 µM (H460 cells; Homo sapiens, NCI-H460, read-out: Inhibitory efficacy, H460 cells, 4uM) was 58.9% and the inhibition at 8 µM (H460 cells; Homo sapiens, NCI-H460, read-out: Inhibitory efficacy, H460 cells, 8uM) was 65.1%. It also gave an inhibition at 16 µM (H460 cells; Homo sapiens, NCI-H460, read-out: Inhibitory efficacy, H460 cells, 16uM) of 88.9%.
